The source of these data is patent US20240409585A1, “MACROCYCLIC IMMUNOMODULATORS” (priority 2021, published 2024).

In the experiment the target is T1, Alexa fluor-647 labeled human PD-L1-Ig binding to Jurkat cell line over-expressing human PD-1 (Homo sapiens, UniProt Q15116).
T1 construct: expressed in transfected cells; host or cells: Jurkat
In words: Jurkat-PD-1 Cell Binding High-Content Screening Assay (CBA): Method 3 (Alexa fluor-647 labeled PD-L1-Ig). The settings on record: Jurkat-PD-1 cells, Alexa fluor-647 labeled PD-L1-Ig 177 nM. The gist of the method: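 Readout by high-content imaging of PFA-fixed, Hoechst-stained cells after 1 h with 177 nM (final) Alexa fluor-647 PD-L1-Ig. Compound was added first to hPD-1 Jurkat cells in RPMI plus 10% FCS for 2 h at 37 °C.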

Where [1] appears, read: head μM, read-out: CBA Method 3 μM.

Molecules are shown by their SMILES. Read-outs that look alike come from different tables or passages of the source. Numbered stars: 1 amine (or outer) side, 2 acyl side, 3 side chain; on linkers, the order of the positions; unused ones are H or OH. Bridge positions count the residues as written; N and C are the ends. Square brackets hold non-standard residues; d marks the D form. Peptide text beside a SMILES is read from it. * marks the point of attachment. Bip(4'-COOH) = N[C@@H](Cc1ccc(-c2ccc(C(=O)O)cc2)cc1)C(=O)O; Bip(4'-NHAc) = CC(=O)Nc1ccc(-c2ccc(C[C@H](N)C(=O)O)cc2)cc1; X20 = CC(NC[C@H](N[*:1])C(=O)[*:2])=C1C(=O)CC(C)(C)CC1=O; Phe(3-CF3) = N[C@@H](Cc1cccc(C(F)(F)F)c1)C(=O)O; Ala(morpholin-4-yl) = N[C@@H](CN1CCOCC1)C(=O)O; Phe(4-CONH2) = NC(=O)c1ccc(C[C@H](N)C(=O)O)cc1; Phe(4-COOH) = N[C@@H](Cc1ccc(C(=O)O)cc1)C(=O)O; Bip = N[C@@H](Cc1ccc(-c2ccccc2)cc1)C(=O)O; Abu(3R-NH2) = C[C@@H](N)[C@H](N)C(=O)O; Phe(3-Me) = Cc1cccc(C[C@H](N)C(=O)O)c1; Abu(3S-NH2) = C[C@H](N)[C@H](N)C(=O)O; hPhe = N[C@@H](CCc1ccccc1)C(=O)O; 2Pal = N[C@@H](Cc1ccccn1)C(=O)O; Cha = N[C@@H](CC1CCCCC1)C(=O)O; Carboxymethyl = O=C(O)C*; NMeA = CN[C@@H](C)C(=O)O; Orn = NCCC[C@H](N)C(=O)O; Dab = NCC[C@H](N)C(=O)O; Dap = NC[C@H](N)C(=O)O

T1 sequence (Q15116 25-288): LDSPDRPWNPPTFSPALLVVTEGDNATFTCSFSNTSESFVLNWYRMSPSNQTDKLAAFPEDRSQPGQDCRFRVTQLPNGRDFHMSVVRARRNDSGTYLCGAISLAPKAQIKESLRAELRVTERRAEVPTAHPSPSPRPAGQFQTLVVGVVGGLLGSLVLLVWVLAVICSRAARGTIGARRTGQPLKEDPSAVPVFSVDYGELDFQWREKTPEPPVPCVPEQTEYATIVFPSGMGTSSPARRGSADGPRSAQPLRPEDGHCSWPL

`CC(=O)Nc1ccc(-c2ccc(C[C@@H]3NC(=O)[C@H](Cc4cccc(C(F)(F)F)c4)NC(=O)[C@H](CC(=O)O)NC(=O)[C@H](Cc4ccc(C(N)=O)cc4)NC(=O)[C@H]([C@H](C)N)NC(=O)CSC[C@@H](C(=O)N[C@@H](CCN)C(N)=O)NC(=O)[C@H](CC(N)=O)NC(=O)[C@H](C(C)C)NC(=O)[C@H](CC4CCCCC4)NC(=O)[C@H](CCN)NC(=O)[C@@H](CC(C)C)NC(=O)[C@H](C)N(C)C(=O)[C@H](Cc4ccc(C(N)=O)cc4)NC(=O)[C@H](Cc4ccc(-c5ccccc5)cc4)NC3=O)cc2)cc1` [Example 5110] ({CH2CO}-[Abu(3S-NH2)][Phe(4-CONH2)]D[Phe(3-CF3)][Bip(4'-NHAc)][Bip][Phe(4-CONH2)][NMeA][dL][Dab][Cha]VNC[Dab]-NH2; thioether N-14): the IC50 (nM, read-out: CBA Method 3) came to 8.8 nM. Same read-out and setting: in the case of `Cc1cccc(C[C@@H]2NC(=O)[C@H](CC(=O)O)NC(=O)[C@H](Cc3ccc(OCC(=O)O)cc3)NC(=O)[C@H](CN3CCOCC3)NC(=O)CSC[C@@H](C(=O)N[C@@H](CCN)C(N)=O)NC(=O)[C@H](CCC(N)=O)NC(=O)[C@H](C(C)C)NC(=O)[C@H](CC3CCCCC3)NC(=O)[C@H](CCN)NC(=O)[C@@H](CC(C)C)NC(=O)[C@H](C)N(C)C(=O)[C@H](CCC(N)=O)NC(=O)[C@H](Cc3ccc(-c4ccccc4)cc3)NC(=O)[C@H](Cc3ccc(OCC(=O)O)cc3)NC2=O)c1` [Example 5224] ({CH2CO}-[Ala(morpholin-4-yl)]Y(Carboxymethyl)D[Phe(3-Me)]Y(Carboxymethyl)[Bip]Q[NMeA][dL][Dab][Cha]VQC[Dab]-NH2; thioether N-14) it was 3.5 nM.

For the compound `CC(C)C[C@H]1NC(=O)[C@H](C)N(C)C(=O)[C@H](CCC(N)=O)NC(=O)[C@H](Cc2ccc(-c3ccccc3)cc2)NC(=O)[C@H](Cc2ccc(OCC(=O)O)cc2)NC(=O)[C@H](Cc2cccc(C(F)(F)F)c2)NC(=O)[C@H](CC(=O)O)NC(=O)[C@H](CCc2ccccc2)NC(=O)[C@H](CN2CCOCC2)NC(=O)CSC[C@@H](C(=O)N[C@@H](CCN)C(N)=O)NC(=O)[C@H](CCCN)NC(=O)[C@H](C(C)C)NC(=O)[C@H](CC2CCCCC2)NC(=O)[C@H](CCN)NC1=O` [Example 5264] ({CH2CO}-[Ala(morpholin-4-yl)][hPhe]D[Phe(3-CF3)]Y(Carboxymethyl)[Bip]Q[NMeA][dL][Dab][Cha]V[Orn]C[Dab]-NH2; thioether N-14), under setting [1], the IC50 was determined as 100 nM. In the case of `COc1ccc(C[C@@H]2NC(=O)[C@H](CN3CCOCC3)NC(=O)CSC[C@@H](C(=O)N[C@@H](CCN)C(N)=O)NC(=O)[C@H](CCCN)NC(=O)[C@H](C(C)C)NC(=O)[C@H](CC3CCCCC3)NC(=O)[C@H](CCN)NC(=O)[C@@H](CC(C)C)NC(=O)[C@H](C)N(C)C(=O)[C@H](CCC(N)=O)NC(=O)[C@H](Cc3ccc(-c4ccccc4)cc3)NC(=O)[C@H](Cc3ccc(OCC(=O)O)cc3)NC(=O)[C@H](Cc3cccc(C(F)(F)F)c3)NC(=O)[C@H](CC(=O)O)NC2=O)cc1` [Example 5263] ({CH2CO}-[Ala(morpholin-4-yl)]Y(Me)D[Phe(3-CF3)]Y(Carboxymethyl)[Bip]Q[NMeA][dL][Dab][Cha]V[Orn]C[Dab]-NH2; thioether N-14), under setting [1], the IC50 was determined as 180 nM. For `Cc1cccc(C[C@@H]2NC(=O)[C@H](CC(=O)O)NC(=O)[C@H](Cc3ccc(OCC(=O)O)cc3)NC(=O)[C@H](CC3CCCCC3)NC(=O)CSC[C@@H](C(=O)N[C@@H](CCN)C(N)=O)NC(=O)[C@H](CCCN)NC(=O)[C@H](C(C)C)NC(=O)[C@H](Cc3ccccn3)NC(=O)[C@H](CCN)NC(=O)[C@@H](CC(C)C)NC(=O)[C@H](C)N(C)C(=O)[C@H](CCC(N)=O)NC(=O)[C@H](Cc3ccc(-c4ccccc4)cc3)NC(=O)[C@H](Cc3ccc(C(=O)O)cc3)NC2=O)c1` [Example 5194] ({CH2CO}-[Cha]Y(Carboxymethyl)D[Phe(3-Me)][Phe(4-COOH)][Bip]Q[NMeA][dL][Dab][2Pal]V[Orn]C[Dab]-NH2; thioether N-14), under setting [1], the IC50 is 40 nM. For the compound `CC(C)C[C@H]1NC(=O)[C@H](C)N(C)C(=O)[C@H](CCCN)NC(=O)[C@H](Cc2ccc(-c3ccccc3)cc2)NC(=O)[C@H](Cc2ccc(-c3ccc(C(=O)O)cc3)cc2)NC(=O)[C@H](Cc2cccc(C(F)(F)F)c2)NC(=O)[C@H](CC(=O)O)NC(=O)[C@H](Cc2ccc(-c3ccc(C(=O)O)cc3)cc2)NC(=O)[C@H](Cc2ccc(OCC(=O)O)cc2)NC(=O)CSC[C@@H](C(=O)N[C@@H](CCN)C(N)=O)NC(=O)[C@H](CCC(N)=O)NC(=O)[C@H](C(C)C)NC(=O)[C@H](CC2CCCCC2)NC(=O)[C@H](CCN)NC1=O` [Example 5120] ({CH2CO}-Y(Carboxymethyl)[Bip(4'-COOH)]D[Phe(3-CF3)][Bip(4'-COOH)][Bip][Orn][NMeA][dL][Dab][Cha]VQC[Dab]-NH2; thioether N-14), the IC50 (nM, read-out: CBA Method 3) is 5.6 nM. Regarding `CC(C)C[C@H]1NC(=O)[C@H](C)N(C)C(=O)[C@H](CCC(N)=O)NC(=O)[C@H](Cc2ccc(-c3ccccc3)cc2)NC(=O)[C@H](CCc2ccccc2)NC(=O)[C@H](Cc2cccc(C(F)(F)F)c2)NC(=O)[C@H](CC(=O)O)NC(=O)[C@H](Cc2ccc(O)cc2)NC(=O)[C@H]([C@@H](C)N)NC(=O)CSC[C@@H](C(=O)N[C@@H](CCN)C(N)=O)NC(=O)[C@H](CCC(N)=O)NC(=O)[C@H](C(C)C)NC(=O)[C@H](CC2CCCCC2)NC(=O)[C@H](CCN)NC1=O` [Example 5242] ({CH2CO}-[Abu(3R-NH2)]YD[Phe(3-CF3)][hPhe][Bip]Q[NMeA][dL][Dab][Cha]VQC[Dab]-NH2; thioether N-14), where the note is “nM, read-out: CBA Method 3”, the IC50 was 2.1 nM. Consider `CC(NC[C@@H]1NC(=O)[C@H](Cc2ccc(C(=O)O)cc2)NC(=O)[C@H](CN2CCOCC2)NC(=O)CSC[C@@H](C(=O)N[C@@H](CCN)C(N)=O)NC(=O)[C@H](CCCN)NC(=O)[C@H](C(C)C)NC(=O)[C@H](CC2CCCCC2)NC(=O)[C@H](CCN)NC(=O)[C@@H](CC(C)C)NC(=O)[C@H](C)N(C)C(=O)[C@H](CCC(N)=O)NC(=O)[C@H](Cc2ccc(-c3ccccc3)cc2)NC(=O)[C@H](Cc2ccc(C(=O)O)cc2)NC(=O)[C@H](Cc2cccc(C(F)(F)F)c2)NC1=O)=C1C(=O)CC(C)(C)CC1=O` [Example 5105] ({CH2CO}-[Ala(morpholin-4-yl)][Phe(4-COOH)][X20][Phe(3-CF3)][Phe(4-COOH)][Bip]Q[NMeA][dL][Dab][Cha]V[Orn]C[Dab]-NH2; thioether N-14), for which the IC50 under setting [1] worked out at 20 nM.

For `CC(=O)Nc1ccc(-c2ccc(C[C@@H]3NC(=O)[C@H](Cc4cccc(C)c4)NC(=O)[C@H](CC(=O)O)NC(=O)[C@H](Cc4ccc(-c5ccc(C(=O)O)cc5)cc4)NC(=O)[C@H](CN4CCOCC4)NC(=O)CSC[C@@H](C(=O)N[C@@H](CCN)C(N)=O)NC(=O)[C@H](CCC(=O)O)NC(=O)[C@H](C(C)C)NC(=O)[C@H](CC4CCCCC4)NC(=O)[C@H](CCN)NC(=O)[C@@H](CC(C)C)NC(=O)[C@H](C)N(C)C(=O)[C@H](Cc4ccc(C(=O)O)cc4)NC(=O)[C@H](Cc4ccc(-c5ccccc5)cc4)NC3=O)cc2)cc1` [Example 5092] ({CH2CO}-[Ala(morpholin-4-yl)][Bip(4'-COOH)]D[Phe(3-Me)][Bip(4'-NHAc)][Bip][Phe(4-COOH)][NMeA][dL][Dab][Cha]VEC[Dab]-NH2; thioether N-14), the IC50 under setting [1] was determined as 100 nM. On to `CC(C)C[C@@H]1NC(=O)[C@H](Cc2c[nH]c3ccccc23)NC(=O)[C@H](CC(=O)O)NC(=O)[C@H](Cc2ccc(C(=O)O)cc2)NC(=O)[C@H](Cc2ccc(OCC(=O)O)cc2)NC(=O)CSC[C@@H](C(=O)N[C@@H](CCCN)C(N)=O)NC(=O)[C@H](C(C)C)NC(=O)[C@H]([C@@H](C)O)NC(=O)[C@H](CC2CCCCC2)NC(=O)[C@H](CCN)NC(=O)[C@@H](CC(C)C)NC(=O)[C@H](C)N(C)C(=O)[C@H](C(C)C)NC(=O)[C@H](Cc2ccc(-c3ccccc3)cc2)NC1=O` [Example 5140] ({CH2CO}-Y(Carboxymethyl)[Phe(4-COOH)]DWL[Bip]V[NMeA][dL][Dab][Cha]TVC[Orn]-NH2; thioether N-14), for which the IC50 under setting [1] stood at 10 nM. Regarding `CC(C)C[C@H]1NC(=O)[C@H](C)N(C)C(=O)[C@H](CCC(N)=O)NC(=O)[C@H](Cc2ccc(-c3ccccc3)cc2)NC(=O)[C@H](Cc2ccc(OCC(=O)O)cc2)NC(=O)[C@H](Cc2cccc(C(F)(F)F)c2)NC(=O)[C@H](CC(=O)O)NC(=O)[C@H](CCC(N)=O)NC(=O)[C@H]([C@@H](C)N)NC(=O)CSC[C@@H](C(=O)N[C@@H](CCN)C(N)=O)NC(=O)[C@H](CCCN)NC(=O)[C@H](C(C)C)NC(=O)[C@H](CC2CCCCC2)NC(=O)[C@H](CCN)NC1=O` [Example 5249] ({CH2CO}-[Abu(3R-NH2)]QD[Phe(3-CF3)]Y(Carboxymethyl)[Bip]Q[NMeA][dL][Dab][Cha]V[Orn]C[Dab]-NH2; thioether N-14), the IC50 (nM, read-out: CBA Method 3) worked out at 1.9 nM. Take `Cc1cccc(C[C@@H]2NC(=O)[C@H](CC(=O)O)NC(=O)[C@H](Cc3ccc(OCC(=O)O)cc3)NC(=O)[C@H](CN)NC(=O)CSC[C@@H](C(=O)N[C@@H](CCN)C(N)=O)NC(=O)[C@H](CCCN)NC(=O)[C@H](C(C)C)NC(=O)[C@H](CC3CCCCC3)NC(=O)[C@H](CCN)NC(=O)[C@@H](CC(C)C)NC(=O)[C@H](C)N(C)C(=O)[C@H](CCC(N)=O)NC(=O)[C@H](Cc3ccc(-c4ccccc4)cc3)NC(=O)[C@H](Cc3ccc(C(=O)O)cc3)NC2=O)c1` [Example 5178] ({CH2CO}-[Dap]Y(Carboxymethyl)D[Phe(3-Me)][Phe(4-COOH)][Bip]Q[NMeA][dL][Dab][Cha]V[Orn]C[Dab]-NH2; thioether N-14): the IC50 under setting [1] was 300 nM.
